Holding throughout (test): growth of human tumour cells (NCI), 48 h
Assay [1] deals with OVCAR-8 ovarian.
For assay [2], the system named is HT29 colon.
Assay [3] has as its system UACC-62 melanoma.
The test system of assay [4] is HCC-2998 colon.
The subject of assay [5] is SF-268 CNS.
The test system of assay [6] is HOP-62 NSCLC.
Assay [7] deals with HOP-92 NSCLC.
Assay [8] concerns BT-549 breast.
For assay [9], the system named is MCF7 breast.
In assay [10] the test system is MDA-MB-435.

Values joined by “and” are separate entries in the source; they are usually repeats but may differ in a detail not shown here. Equal entries are not always repeated.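 Cultured in 96-well plates, cells were exposed to test compound for 48 hours across five concentrations. GI50 marks 50% less growth. TGI is the concentration that stops growth completely.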

For the compound `O=C(NCCCCNc1cccccc1=O)OCc1ccccc1`, the TGI in [1], in assay [2], in [3], in assay [4], in [5] and in assay [6] was more than 100 µM each time.

`COC(=O)NC(=O)c1cn(C2OC(CO)C(O)C2O)c(=O)[nH]c1=O` (configuration not stated): the TGI in assay [1], in [2], in assay [3], in assay [4], in assay [5] and in [7] was more than 100 µM throughout. Further, the TGI in [6] is more than 100 µM.

Turning to `N.N.N.N.[Co+3].[N-]=[N+]=[N-].[N-]=[N+]=[N-].[N-]=[N+]=[N-]`, the GI50 in assay [1] is more than 100 µM; in assay [2], more than 100 µM; in [3] it was 85.2 µM; in [4], more than 100 µM; in assay [5], 47.4 µM; in assay [7], 19 µM. In addition, in assay [6], the GI50 was more than 100 µM. In addition, the TGI in assay [1], in assay [2], in assay [3], in assay [4], in [5] and in assay [7] was more than 100 µM each time. For the same compound, the TGI in [6] was more than 100 µM.

With `CC[C@@H]1c2c(C#N)ncn2-c2cnc(Nc3ccc(C(=O)NC4CCN(C5CCN(CC6CC6)CC5)CC4)cc3OC)nc2N1C1CCCC1`, the GI50 in assay [2] is 0.036 µM; in [3], 0.372 µM; in [8] it was 0.485 µM; in assay [4] it was 0.04 µM and 0.0308 µM; in assay [5], 0.0642 µM; in assay [9], 0.00514 µM. Besides, the GI50 in assay [7] was 0.0777 µM; in assay [6] it was 0.0403 µM. In addition, the TGI in assay [2] was 0.135 µM; in [3], 1.79 µM; in assay [8], 1.85 µM; in assay [4], 1.09 µM and 0.162 µM; in [5], 1.77 µM; in assay [9], 1.2 µM. In addition, the TGI in [7] was 1.83 µM; in assay [6] it was 1.79 µM.

With `O=C1CC(O)CC(=O)C1=C(O)CCCCCCCCCCc1ccccc1` (configuration not stated), the TGI in [1], in assay [2], in assay [3], in [4], in [5] and in [7] was more than 100 µM throughout. This compound also yielded a TGI in [6] of more than 100 µM.

For `COc1ccc(C23C(=O)c4ccccc4N2O[C@H]2C(=O)N(c4ccccc4)C(=O)[C@H]23)cc1` (some centres not stated), the TGI in assay [1], in assay [2], in assay [3], in [4], in assay [5] and in [7] was more than 100 µM in each case. In [6], this compound returned a TGI of more than 100 µM.

In the case of `N.N.N.N.N.NC(=O)c1nn[n-]n1.[Cl-].[Co+3]`, the GI50 in assay [1], in [2], in assay [3], in [4], in [5] and in assay [7] was more than 100 µM in each case. The GI50 in assay [6] is more than 100 µM. The TGI in [1], in [2], in [3], in assay [4], in [5] and in assay [7] was more than 100 µM in each case. Besides, the TGI in assay [6] is more than 100 µM.

For `O=C(COc1ccc(Cl)cc1)N1N=C(c2ccc(Cl)cc2)CC1(O)c1ccccc1` (configuration not stated), the TGI in assay [1] is 30 µM; in [2] it was 26.3 µM; in [3], 41.6 µM; in assay [4] it was more than 100 µM; in [5] it was more than 100 µM; in [7], 44.1 µM. The compound further had a TGI in assay [6] of 57 µM.

For the compound `Cc1cccc(/C=C/c2c(C(=O)/C=C/c3ccccc3)c(C)nc3ccccc23)c1`, the GI50 in assay [2] is 2.12 µM; in [3] it was 1.58 µM; in [4], 1.73 µM; in [9], 0.565 µM; in assay [7], 1.48 µM; in assay [6], 1.75 µM. Further, the GI50 in [10] was 1.81 µM. For the same compound, the TGI in [2] turned out to be 16.9 µM; in [3] it was 3.14 µM; in [4], 3.49 µM; in [9], 4.22 µM; in assay [7] it was 4 µM; in assay [6], 3.48 µM. Also, the TGI in [10] worked out at 4.29 µM.

In the case of `CC1(C)O[C@H]2[C@H](O)C[C@](O)(CO)C[C@H]2O1`, the TGI in assay [1], in [2], in assay [3] and in [7] was more than 100 µM each time.

For the compound `O=C(O)CCN(CCCCN(CCC(=O)O)CCC(=O)O)CCC(=O)O`, the TGI in assay [1], in assay [2], in assay [3], in assay [4], in assay [5] and in assay [7] was more than 100 µM each time. Further, the TGI in assay [6] was more than 100 µM.

As to `Cc1cc(CC(=O)NCCO)n(CCO)c(=O)c1`, the TGI in [1], in assay [2], in [3], in [4], in [5] and in [7] was more than 100 µM throughout. Moreover, in [6], the TGI is more than 100 µM.

For `CCOC(=O)C12CCCC1(O)N(NC(=O)OC(C)(C)C)C(C)=C2C(=O)OC` (configuration not stated), the TGI in assay [1], in assay [2], in assay [3], in assay [4], in assay [5] and in [7] was more than 100 µM throughout. For the same compound, the TGI in assay [6] is more than 100 µM.

In the case of `COc1ccc(/C=N/N=C(\N)NO)cc1O`, the TGI in [2] is more than 100 µM; in [3], more than 100 µM; in assay [4] it was more than 100 µM; in assay [5], more than 100 µM; in assay [7], 64.2 µM.

Source of the values: PubChem BioAssay (NCI).
